Measured values: publication PMC5078989, “Targeted inhibition of the COP9 signalosome for treatment of cancer” (Nature Communications, 2016)

Experiments:
HCT116 cells = assay: Immunoblotting of cullins, CRL components and substrates in HCT116 cells; format: cell-based, human; conditions: qualitative western blot analysis
Method: Figure 2 CSN5 inhibition results in the inactivation of a subset of CRLs and the stabilization of their substrates. Effect on CRL components and substrates after treatment of HCT116 cells with either 1 μM MLN4924 or 1 μM CSN5i-3. (a) Immunoblottings for Cul1 and its CRL components Rbx and Skp1; (b) for cullins Cul2, Cul3 and Cul4A; (c) for F-box protein Skp2 and the SCF^Skp2 substrates p21 and p27; (d) for F-box proteins Fbxo22 and Fbxo30; (e) for F-box protein βTrCP and the SCF^βTrCP substrates Wee1 and pIκBα; (f) for the adaptor KEAP1 and the Cul3^KEAP1 substrate Nrf2; (g) for F-box proteins Fbxw7 and Fbxo3.
Cells were maintained in a humidified incubator at 37 °C and 5% CO2. HCT116 cells (ATCC #CCL-247) were grown in McCoy's 5A medium (GIBCO #16600–082) supplemented with 10% fetal bovine serum (FBS), TE-1 (RIKEN BioResource Center, #RCB1894), NCI-H2030 (ATCC #CRL-591), SU-DHL-1 (DMSZ #ACC 356), NOMO-1 (HSRRB #IFO50474) and NCIH196 cells (ATCC, #CRL-5823) in RPMI-1640 medium (GIBCO#61870–010) supplemented with 10% FBS, 10 mM HEPES, 1 mM sodium pyruvate and THP-1 cells (ATCC #TIB-202) with additional 0.05 mM 2-mercaptoethanol. DMS273 cells (ECACC #950628) were cultured in Waymouth's MB 752/1 medium (GIBCO#11220–035) supplemented with 10% FBS. All cells were negatively tested for mycoplasma contamination either by the vendor or in house. For treatment with compounds, sub-confluent cells were either treated with inhibitors at the indicated concentrations or mock treated with an equivalent amount of DMSO (final content 0.1%). If not stated otherwise, cells were harvested after incubation for 16 h and subjected to SDS–PAGE and western blotting. The RNA interference experiment was performed with CSN5 stealth siRNA (#HSS116986) and stealth negative control siRNA (#12935–400) (Invitrogen), which were transfected at 10 nM into HCT116 cells using HiperFect (Qiagen) according to the manufacturer's protocols. Seventy-two hours after transfection, cells were harvested and subjected to SDS–PAGE and western blotting (see Supplementary Fig. 7 for all western blottings performed).
For further analysis, cell lysates were prepared by direct lysis with 2 × Sample buffer (65.8 mM Tris-HCl, pH 6.8, 2.1% SDS, 26.3% glycerol, 0.01% bromophenol blue and 20 mM DTT). Protein lysates from tumour powder were prepared in RIPA buffer (50 mM Tris-HCl pH 8.0, 150 mM NaCl, 1% Triton X-100, 2 mM EDTA, 0.5% sodium deoxycholate and 0.1% SDS) supplemented with 10 mM N-ethylmaleimide, protease inhibitor and phosphatase inhibitor cocktails (Roche Diagnostics). Cells from longer compound incubations were also lysed in RIPA buffer, which allows the protein concentration to be determined by BCA Protein Assay Kit (Pierce). Proteins were separated by SDS–PAGE using 4–20% Tris-Glycine Gels (Invitrogen) and subsequently transferred to polyvinylidene difluoride membranes using a Trans-Blot Turbo System (BioRad). […] Horseradish peroxidase-conjugated secondary antibodies (1:3,000) were purchased from Promega AG and bound antibody was detected by enhanced chemiluminescence (Pierce).

[1] = test system: panel of cancer cell lines; assay: Cell viability (CellTiter-Glo) dose-response across cancer cell line panel; format: cell-based, human; conditions: SNB-19;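 further: after 72 h compound incubation with CellTiter-Glo ATP readout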
Excerpt: Next, we explored the effect of CSN5 inhibition on the viability of cancer cells. To obtain a comprehensive picture, we generated dose–response curves with a CSN5 inhibitor across more than 500 cancer cell lines in a previously described standardized setting[47] (Supplementary Data 1).
A standardized CellTiter-Glo Assay (Promega #G7570) based on the quantification of ATP was applied according to the manufacturer's protocol to measure the amount of viable cells in culture. In brief, cells were seeded into 384-well plates at optimal density for each cell line. After 4 h, compounds were added at different concentrations in growth medium and incubated for another 72 h in a humidifying chamber at 37 °C and 5% CO2. […] EC50 values were calculated from the plot of percentage of inhibition versus inhibitor concentration using the nonlinear regression analysis software Origin 7.5SR6 (OriginLab Corp.).

Compound	cullin-1 (Cul1) deneddylation in HCT116 cells (HCT116 cells)	EC50 [1]
N#Cc1ccc([C@H]2[C@@H](O)CCCc3cncn32)c(-c2ccccc2)c1 (relative stereo) [CSN5i-1a, Cis-6-(6-Hydroxy-6,7,8,9-tetrahydro-5H-imidazo[1,5-a]azepin-5-yl)-[1,1′-biphenyl]-3-carbonitrile]	weakly inhibited	–
CC(C)C[C@H](NC(=O)[C@H](Cc1ccccc1)NC(=O)c1cnccn1)B(O)O [Botezomib]	–	9.53 nM
